Test results: patent US11845726B2
“And” between values parts separate entries of the source, which are not always exact repeats. Equal values may be shown once. “Also recorded” adds a separate entry of the source.

What was measured:
5-HT1A receptor = target: T1, 5-HT1A receptor (Homo sapiens, UniProt P08908); assay: cAMP-Glo assay of 5-HT1A receptor modulation in +5-HT1A and -5-HT1A CHO-K1 cells; type: cell-based; conditions: for cAMP levels / 5-HT1A receptor modulation: forskolin-stimulated +5-HT1A vs -5-HT1A cells
T1 construct: host or cells: CHO-K1 co-expressing Ga15
T1 sequence (P08908 1-422): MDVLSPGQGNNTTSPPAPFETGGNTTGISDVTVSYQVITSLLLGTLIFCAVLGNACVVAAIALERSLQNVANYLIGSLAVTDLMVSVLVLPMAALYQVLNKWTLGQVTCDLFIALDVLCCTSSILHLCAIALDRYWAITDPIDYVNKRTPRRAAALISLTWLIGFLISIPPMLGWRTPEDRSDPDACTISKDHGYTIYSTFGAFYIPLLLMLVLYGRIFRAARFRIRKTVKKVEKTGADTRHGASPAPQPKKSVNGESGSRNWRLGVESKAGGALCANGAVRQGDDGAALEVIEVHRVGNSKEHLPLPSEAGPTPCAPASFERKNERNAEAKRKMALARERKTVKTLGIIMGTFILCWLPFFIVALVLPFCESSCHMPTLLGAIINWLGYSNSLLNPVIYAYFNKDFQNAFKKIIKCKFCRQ

in vitro = in vitro ADME, human; conditions: for half-life: human
From the text: A fundamental evaluation in drug development is the assessment of absorption, distribution, metabolism, excretion, and pharmacokinetics (ADME/PK) (Eddershaw et al., 2000, Drug Discovery Today 5(9): 409-414). […] Drug stability upon exposure to human liver microsomes and liver S9 cellular fractions is a common in vitro assay to approximate in vivo, liver-based drug metabolism (Richardson et al., 2016 Drug Metabolism Letters 10:83-90). First-pass metabolism is also often approximated in vitro using intestinal microsome and cellular S9 fractions (Hatley et al., 2017, Biopharmaceuticals & Drug Disposition, 38(2):155-160). Further, it is well known that human serum, and particularly circulating serum esterases can contribute to systemic drug metabolism (Williams, F M 1987, Pharmacology and Therapeutics, 34:99-109). Many pharmacological agents are classified as prodrugs, as they undergo metabolic transformation in vivo upon administration to release the active drug compound into the systemic compartment (Zawilska J B, et al. 2013, Pharmacological Reports, 65:1-14). Psilocybin, a serotonergic psychedelic agent, is well known prodrug that is metabolized into the psychoactive product, psilocin (Dinis-Oliveira, R J 2017, Drug Metabolism Reviews, 49(1):84-91). To evaluate the capacity of test molecules to similarly serve as prodrugs of psilocin, time-dependent, metabolic stability assays using human AB serum, human intestinal microsomes (HIM), human intestinal S9 fractions (HIS9), human liver microsomes (HLM), human liver S9 fractions (HLS9), human alkaline phosphatase, and porcine esterase were performed. […] Liquid chromatography coupled mass spectrometry (LC-MS) was employed to track the conversion of the test molecules into psilocin. All intestinal and liver fractions and NADPH RapidStart reagent was purchased from Sekisui/XenoTech. Human AB serum was purchased from Sigma. For intestine and liver metabolism assays, 2.5 μM candidate compounds were incubated in 400 μg/ml of each cellular fraction (HLM, HLS9, HIM, or HIS9) in 50 mM potassium phosphate buffer (pH 7.4) containing 3 mM MgCl2 and 1 mM EDTA supplemented with NADPH RapidStart at 37° C. Samples were taken at the start of the assay, and at every 20 minutes for 2 hours. Time-point samples were precipitated with 1:1 volume of acetonitrile to quench the reaction before centrifugation at 4000×g for 20 minutes. Supernatants were analyzed for the presence of candidate prodrugs (parent molecule) and psilocin (the predicted metabolite) using Orbitrap LC-MS (Thermo Scientific) using previously described methods (Menéndez-Perdomo et al., 2021, J. Mass Spectrom., 56: e4683). The serum assays were carried out in 10% human AB serum in 50 mM potassium phosphate buffer (pH 7.4) containing 3 mM MgCl2 and 1 mM EDTA. Bovine alkaline phosphatase assays were carried out using one unit of purified enzyme in 50 mM potassium phosphate buffer (pH 7.4) containing 3 mM MgCl2 and 1 mM EDTA. Porcine esterase assays were carried out using one unit of purified enzyme in 50 mM potassium phosphate buffer (pH 7.4) containing 3 mM MgCl2 and 1 mM EDTA. Assay concentrations (μM) of both parent ‘prodrug’ molecule and psilocin metabolite, as quantified through LC-MS using routine standard curve procedures, were plotted as functions of assay time (minutes). The metabolism rate (T1/2) was determined from the metabolism curve plot using the one phase decay feature of GraphPad PRISM software (Version 9.2.0). The quantity of parent prodrug at time zero was set as 100%.
Positive controls were first tested to ensure that assays were functioning properly.

[1] = In vitro metabolic stability / psilocin release in AB serum; type: in vitro ADME, human
From the text: A fundamental evaluation in drug development is the assessment of absorption, distribution, metabolism, excretion, and pharmacokinetics (ADME/PK) (Eddershaw et al., 2000, Drug Discovery Today 5(9): 409-414). […] Drug stability upon exposure to human liver microsomes and liver S9 cellular fractions is a common in vitro assay to approximate in vivo, liver-based drug metabolism (Richardson et al., 2016 Drug Metabolism Letters 10:83-90). First-pass metabolism is also often approximated in vitro using intestinal microsome and cellular S9 fractions (Hatley et al., 2017, Biopharmaceuticals & Drug Disposition, 38(2):155-160). Further, it is well known that human serum, and particularly circulating serum esterases can contribute to systemic drug metabolism (Williams, F M 1987, Pharmacology and Therapeutics, 34:99-109). Many pharmacological agents are classified as prodrugs, as they undergo metabolic transformation in vivo upon administration to release the active drug compound into the systemic compartment (Zawilska J B, et al. 2013, Pharmacological Reports, 65:1-14). Psilocybin, a serotonergic psychedelic agent, is well known prodrug that is metabolized into the psychoactive product, psilocin (Dinis-Oliveira, R J 2017, Drug Metabolism Reviews, 49(1):84-91). […] Supernatants were analyzed for the presence of candidate prodrugs (parent molecule) and psilocin (the predicted metabolite) using Orbitrap LC-MS (Thermo Scientific) using previously described methods (Menéndez-Perdomo et al., 2021, J. Mass Spectrom., 56: e4683). […] Assay concentrations (μM) of both parent ‘prodrug’ molecule and psilocin metabolite, as quantified through LC-MS using routine standard curve procedures, were plotted as functions of assay time (minutes). The metabolism rate (T1/2) was determined from the metabolism curve plot using the one phase decay feature of GraphPad PRISM software (Version 9.2.0). The quantity of parent prodrug at time zero was set as 100%. […]

5-HT2A receptor [2] = target: T2, 5-HT2A receptor (Mus musculus, UniProt P35363); assay: Drug-induced Head Twitch Response (HTR); type: in vivo, mice; conditions: 1 mg/kg i.p., 15-to-30-minute window after administration
T2 construct: tissue Charles River; host or cells: living C57BL/6-Elite mice (neuronal receptor)
T2 sequence (P35363 whole entry): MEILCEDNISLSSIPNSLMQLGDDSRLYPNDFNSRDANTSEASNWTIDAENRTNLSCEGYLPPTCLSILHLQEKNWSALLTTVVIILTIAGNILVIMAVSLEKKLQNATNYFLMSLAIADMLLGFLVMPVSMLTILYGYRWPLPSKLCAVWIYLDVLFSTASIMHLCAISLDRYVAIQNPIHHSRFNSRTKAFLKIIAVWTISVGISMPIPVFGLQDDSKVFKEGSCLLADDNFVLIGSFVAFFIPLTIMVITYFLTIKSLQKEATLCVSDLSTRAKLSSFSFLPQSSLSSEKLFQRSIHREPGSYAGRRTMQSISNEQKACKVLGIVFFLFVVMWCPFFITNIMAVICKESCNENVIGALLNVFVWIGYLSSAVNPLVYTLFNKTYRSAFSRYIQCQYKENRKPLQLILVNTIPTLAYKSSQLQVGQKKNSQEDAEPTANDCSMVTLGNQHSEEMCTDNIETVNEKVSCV

HepG2 cells = assay: PrestoBlue cell viability assay; conditions: 48 hours
5-HT2A receptor [3] = target: 5-HT2A receptor (Homo sapiens, UniProt P28223); assay: [3H]ketanserin competition binding assay (SPA); conditions: for 5-HT2A competition binding: control ligands, [3H]ketanserin competition
Chain of 5-HT2A receptor (Homo sapiens, UniProt P28223) (P28223 whole entry): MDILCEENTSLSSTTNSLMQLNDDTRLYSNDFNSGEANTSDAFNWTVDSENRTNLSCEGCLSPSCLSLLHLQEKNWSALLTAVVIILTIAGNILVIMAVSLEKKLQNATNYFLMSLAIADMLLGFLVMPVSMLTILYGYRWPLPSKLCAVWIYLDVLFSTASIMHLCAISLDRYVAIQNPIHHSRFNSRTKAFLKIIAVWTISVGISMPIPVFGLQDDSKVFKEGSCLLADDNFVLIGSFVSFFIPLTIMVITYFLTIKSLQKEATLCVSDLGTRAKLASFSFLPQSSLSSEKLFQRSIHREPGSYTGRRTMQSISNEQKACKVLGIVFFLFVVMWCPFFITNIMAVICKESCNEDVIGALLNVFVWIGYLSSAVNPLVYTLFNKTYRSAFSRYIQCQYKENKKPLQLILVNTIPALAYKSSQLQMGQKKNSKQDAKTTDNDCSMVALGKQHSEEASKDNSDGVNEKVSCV

[4] = Mouse pharmacokinetic (PK) evaluation of drug metabolism to psilocin; conditions: for administered compound in plasma after oral dosing: any dose
GABAA = type: cell-based
[5] = Stability in enzyme-free control buffer; type: in vitro ADME; conditions: assay buffer without enzymes
From the text: A fundamental evaluation in drug development is the assessment of absorption, distribution, metabolism, excretion, and pharmacokinetics (ADME/PK) (Eddershaw et al., 2000, Drug Discovery Today 5(9): 409-414). […] Drug stability upon exposure to human liver microsomes and liver S9 cellular fractions is a common in vitro assay to approximate in vivo, liver-based drug metabolism (Richardson et al., 2016 Drug Metabolism Letters 10:83-90). First-pass metabolism is also often approximated in vitro using intestinal microsome and cellular S9 fractions (Hatley et al., 2017, Biopharmaceuticals & Drug Disposition, 38(2):155-160). […] Supernatants were analyzed for the presence of candidate prodrugs (parent molecule) and psilocin (the predicted metabolite) using Orbitrap LC-MS (Thermo Scientific) using previously described methods (Menéndez-Perdomo et al., 2021, J. Mass Spectrom., 56: e4683). […] Assay concentrations (μM) of both parent ‘prodrug’ molecule and psilocin metabolite, as quantified through LC-MS using routine standard curve procedures, were plotted as functions of assay time (minutes). The metabolism rate (T1/2) was determined from the metabolism curve plot using the one phase decay feature of GraphPad PRISM software (Version 9.2.0). The quantity of parent prodrug at time zero was set as 100%.

[6] = 1 mg/kg i.v., 0.25 h, Mean ± SD
[7] = 1 mg/kg i.v., 1 h, individual mice
[8] = 1 mg/kg i.v., 2 h, individual mice
[9] = 1 mg/kg i.v., 4 h, individual mice
[10] = 1 mg/kg i.v., 6 h, individual mice
[11] = 1 mg/kg i.v., 8 h, individual mice
[12] = 3 mg/kg oral, 24 h, individual mice

Row | Compound | stability / conversion to psilocin (in vitro; HLM) | stability / conversion to psilocin (in vitro; HLS9) | stability / conversion to psilocin [1] | Head Twitch Response (5-HT2A receptor [2]) | CD50 (cytotoxicity) (HepG2 cells) [µM] | Ki (5-HT2A receptor [3]) [nM] | cAMP levels / 5-HT1A receptor modulation (5-HT1A receptor) | administered compound in plasma after i.v. dosing ([4]; 1 mg/kg i.v.) | Plasma concentration of the administered compound itself ([4]; 1 mg/kg i.v., 5 min, Mean ± SD) [ng/mL] | Plasma concentration of the administered compound itself [4, 6] [ng/mL] | Plasma concentration of the administered compound itself ([4]; 1 mg/kg i.v., 0.5 h, Mean ± SD) | Plasma concentration of the administered compound itself ([4]; 1 mg/kg i.v., 1 h, Mean ± SD) | Plasma concentration of the administered compound itself [4, 7] | Plasma concentration of the administered compound itself [4, 8] | Plasma concentration of the administered compound itself [4, 9] | Plasma concentration of the administered compound itself [4, 10] | Plasma concentration of the administered compound itself [4, 11] | Plasma concentration of psilocin [4, 12] | administered compound in plasma after oral dosing [4] | 5-HT2A competition binding (5-HT2A receptor [3]) | other results
1 | CN(C)CCc1c[nH]c2cccc(OC(=O)OCc3ccccc3)c12 [B(II)] | did not readily dissociate to psilocin | did not readily dissociate to psilocin | failed completely to dissociate | elicit head twitching | 65.9 | 277 | – | – | – | – | – | – | – | – | – | – | – | – | – | – | EC50 at 5-HT1A (5-HT1A receptor; forskolin-stimulated +5-HT1A cells): neither molecule engaged 5-HT1A with sufficient potency to calculate an EC50 value; half-life (in vitro; microsomes, pH 7.4): 3.63 h; half-life (in vitro; s9, pH 7.4): 8.95 h; time administered compound resides in plasma post-dosing ([4]; 10 mg/kg oral): up to 4 hours
2 | CN(C)CCc1c[nH]c2cccc(OC(=O)SCc3ccccc3)c12 [E(VI)] | quickly converted to psilocin | quickly converted to psilocin | quickly converted to psilocin; also recorded: nearly completely disappears upon in vitro exposure to AB serum | Elevated incidences of HTR; also recorded: elevated response was observed in mice treated with E(VI) compared to B(II) | 74.5 | 130 | mild receptor modulation at higher ligand concentrations | detectable levels of E(VI) | 24.4 ± 30.2 | 63.3 ± 51.7 | 7.81 ± 6.17 ng/mL | 4.49 (n = 2) ng/mL | 3.14 ng/mL and No Peak | 0.776 ng/mL and No Peak | BLQ (2×) and No Peak | No Peak (2×) and BLQ | No Peak | No Peak (2×) and BLQ | did not yield any detectable levels of E(VI); also recorded: never detected at any timepoint | – | IC50 (GABAA; blocker (BL)): 32200 nM; EC50 (GABAA; opener (OP)): > 100000 nM; Plasma concentration of the administered compound itself ([4]; 1 mg/kg i.v., 2 h, Mean ± SD): 0.685 (n = 2) ng/mL; AUC0-tlast of the administered compound ([4]; 1 mg/kg i.v., Mean ± SD): 19.7 ± 15.9 ng·h/mL; AUC0-tlast/Dose of the administered compound ([4]; 1 mg/kg i.v., Mean ± SD): 19.7 ± 15.9 kg·ng·h/mL/mg; AUC0-tlast/Dose of the administered compound ([4]; 1 mg/kg i.v., individual mice): 20.4 kg·ng·h/mL/mg and 35.2 kg·ng·h/mL/mg and 3.40 kg·ng·h/mL/mg; administered compound in plasma ([4]; 1 mg/kg oral): neither B(II) nor E(VI) were detected in plasma; Plasma concentration of psilocin ([4]; 1 mg/kg oral, 8 h, individual mice): BLQ; Plasma concentration of psilocin ([4]; 1 mg/kg oral, 24 h, individual mice): No Peak; Plasma concentration of psilocin ([4]; 10 mg/kg oral, 24 h, individual mice): BLQ
3 | CN(C)CCc1c[nH]c2cccc(O)c12 [psilocin] | – | – | – | – | – | – | reduction in cAMP levels | – | – | – | – | – | – | – | – | – | – | – | – | binding | –
4 | CN(C)CCc1c[nH]c2cccc(OP(=O)(O)O)c12 [psilocybin] | stable in liver fractions with no conversion to psilocin | stable in liver fractions with no conversion to psilocin | stable in serum with no conversion to psilocin | – | – | – | – | only detectable in i.v. administered animals | 144 ± 167 | 13.2 ± 12.5 | 4.28 (n = 2) ng/mL | 1.21 (n = 1) ng/mL | No Peak (2×) and 1.21 ng/mL | No Peak | No Peak | No Peak | No Peak (2×) and 2.54 ng/mL | BLQ | not detectable in orally administered animals at any dose | – | stability [5]: stability of psilocybin was confirmed in assay buffer; Plasma concentration of the administered compound itself ([4]; 1 mg/kg i.v., 5 min, individual mice): 19.7 ng/mL and 76.8 ng/mL and 334 ng/mL; Plasma concentration of the administered compound itself ([4]; 1 mg/kg i.v., 0.25 h, individual mice): 3.32 ng/mL and 8.95 ng/mL and 27.2 ng/mL; Plasma concentration of the administered compound itself ([4]; 1 mg/kg i.v., 0.5 h, individual mice): No Peak and 2.35 ng/mL and 6.21 ng/mL; Plasma concentration of psilocin ([4]; 1.56 mg/kg oral, 24 h, individual mice): BLQ
5 | NCCc1c[nH]c2ccc(O)cc12 [serotonin] | – | – | – | – | – | – | reduction in cAMP levels | – | – | – | – | – | – | – | – | – | – | – | – | – | –
6 | N[C@@H](Cc1c[nH]c2ccccc12)C(=O)O [tryptophan] | – | – | – | – | – | – | no reduction in cellular cAMP levels | – | – | – | – | – | – | – | – | – | – | – | – | no binding | –
